Measurements reported in ChEMBL document CHEMBL4725230, “Syntheses and pharmacokinetic evaluations of four metabolites of 2-(4-(2-((1H-benzo[d]imidazol-2-yl)thio)ethyl)piperazin-1-yl)-N-(6-methyl-2,4-bis-(methylthio)pyridin-3-yl)acetamide hydrochloride [K-604], an acyl-CoA:cholesterol O-acyltransferase-1 inhibitor” (Bioorg Med Chem, 2020).

Columns and labels:
Cytochrome P450 3A2 [1] = target: T1, Cytochrome P450 3A2 (Rattus norvegicus, UniProt P05183); test: Drug metabolism in male rat liver microsomes assessed as CYP3A2-mediated 2-(4-(2-((1H-Benzo[d]imidazol-2-yl)thio)ethyl)piperazin-1-yl)-N-(6-methyl-2-(methyl-sulfinyl)-4-(methylthio)pyridin-3-yl)acetamide formation; type: ADME
T1 sequence (P05183 whole entry): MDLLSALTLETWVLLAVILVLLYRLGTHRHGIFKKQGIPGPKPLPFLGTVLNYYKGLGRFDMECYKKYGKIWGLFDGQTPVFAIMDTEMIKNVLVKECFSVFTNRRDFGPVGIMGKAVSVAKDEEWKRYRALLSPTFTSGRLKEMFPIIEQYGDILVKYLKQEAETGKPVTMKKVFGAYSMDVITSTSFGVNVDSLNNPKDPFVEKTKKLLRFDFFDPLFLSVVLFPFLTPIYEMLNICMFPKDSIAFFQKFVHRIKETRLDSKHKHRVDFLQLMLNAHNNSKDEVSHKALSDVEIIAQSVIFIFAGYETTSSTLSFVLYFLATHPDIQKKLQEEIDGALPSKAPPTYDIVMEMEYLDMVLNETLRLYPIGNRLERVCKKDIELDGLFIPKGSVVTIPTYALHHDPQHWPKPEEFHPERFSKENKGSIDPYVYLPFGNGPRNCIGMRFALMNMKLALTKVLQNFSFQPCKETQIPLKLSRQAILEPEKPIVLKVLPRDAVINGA

Cytochrome P450 3A5 [2] = target: T2, Cytochrome P450 3A5 (Homo sapiens, UniProt P20815); test: Drug metabolism in human liver microsomes assessed as CYP3A5-mediated 2-(4-(2-((5-Hydroxy-1H-benzo[d]imidazol-2-yl)thio)ethyl)piperazin-1-yl)-N-(6-methyl-2,4-bis(methylthio)pyridin-3-yl)acetamide formation; type: ADME
T2 sequence (P20815 whole entry): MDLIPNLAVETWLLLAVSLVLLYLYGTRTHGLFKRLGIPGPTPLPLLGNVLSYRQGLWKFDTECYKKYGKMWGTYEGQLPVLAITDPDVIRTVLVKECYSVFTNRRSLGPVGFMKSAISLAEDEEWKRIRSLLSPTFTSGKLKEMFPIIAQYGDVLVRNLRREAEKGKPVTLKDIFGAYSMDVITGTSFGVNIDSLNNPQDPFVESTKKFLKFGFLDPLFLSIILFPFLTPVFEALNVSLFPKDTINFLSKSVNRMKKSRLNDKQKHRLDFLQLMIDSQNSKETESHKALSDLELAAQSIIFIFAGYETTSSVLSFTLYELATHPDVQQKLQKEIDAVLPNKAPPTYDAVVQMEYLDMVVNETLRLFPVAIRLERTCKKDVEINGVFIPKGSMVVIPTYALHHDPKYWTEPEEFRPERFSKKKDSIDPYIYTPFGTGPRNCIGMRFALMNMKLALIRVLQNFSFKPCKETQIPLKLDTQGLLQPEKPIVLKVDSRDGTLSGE

Cytochrome P450 3A4 [3] = target: T3, Cytochrome P450 3A4 (Homo sapiens, UniProt P08684); test: Drug metabolism in human liver microsomes assessed as CYP3A4-mediated 2-(4-(2-((1H-Benzo[d]imidazol-2-yl)thio)ethyl)piperazin-1-yl)-N-(6-methyl-4-(methylsulfinyl)-2-(methylthio)pyridin-3-yl)acetamide formation; type: ADME
T3 sequence (P08684 whole entry): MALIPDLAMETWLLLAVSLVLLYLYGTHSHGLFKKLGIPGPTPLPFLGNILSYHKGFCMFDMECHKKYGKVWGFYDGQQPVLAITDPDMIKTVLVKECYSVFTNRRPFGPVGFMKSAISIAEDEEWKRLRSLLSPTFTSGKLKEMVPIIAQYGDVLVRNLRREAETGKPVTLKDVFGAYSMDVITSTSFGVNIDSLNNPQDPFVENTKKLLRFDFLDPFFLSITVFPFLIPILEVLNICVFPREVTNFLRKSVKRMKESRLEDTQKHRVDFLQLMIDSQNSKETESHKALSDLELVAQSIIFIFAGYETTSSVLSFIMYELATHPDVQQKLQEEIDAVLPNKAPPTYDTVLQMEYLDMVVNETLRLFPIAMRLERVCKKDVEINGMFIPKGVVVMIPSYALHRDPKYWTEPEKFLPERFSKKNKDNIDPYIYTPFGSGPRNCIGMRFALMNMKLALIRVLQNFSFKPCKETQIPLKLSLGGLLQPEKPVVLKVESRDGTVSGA

[4] = Drug metabolism in cynomolgus monkey plasma assessed as 2-(4-(2-((5-Hydroxy-1H-benzo[d]imidazol-2-yl)thio)ethyl)piperazin-1-yl)-N-(6-methyl-2,4-bis(methylthio)pyridin-3-yl)acetamide formation at 10 mg/kg, administered into stomach using nasogastric catheter measured upto 360 mins by column-switching HPLC method; type: ADME, organism-based, Macaca fascicularis; conditions: in vivo, po, 6 h
Cytochrome P450 3A4 [5] = target: T3, Cytochrome P450 3A4; test: Drug metabolism in human liver microsomes assessed as CYP3A4-mediated 2-(4-(2-((1H-Benzo[d]imidazol-2-yl)sulfinyl)ethyl)piperazin-1-yl)-N-(6-methyl-2,4-bis(methylthio)pyridin-3-yl)acetamide formation; type: ADME
Cytochrome P450 [6] = test: Drug metabolism in human liver microsomes assessed as Km for cytochrome p450-mediated 2-(4-(2-((1H-Benzo[d]imidazol-2-yl)sulfinyl)ethyl)piperazin-1-yl)-N-(6-methyl-2,4-bis(methylthio)pyridin-3-yl)acetamide formation; type: ADME
[7] = Drug metabolism in cynomolgus monkey plasma assessed as 2-(4-(2-((1H-Benzo[d]imidazol-2-yl)sulfinyl)ethyl)piperazin-1-yl)-N-(6-methyl-2,4-bis(methylthio)pyridin-3-yl)acetamide formation at 10 mg/kg, administered into stomach using nasogastric catheter measured upto 360 mins by column-switching HPLC method; type: ADME, organism-based, Macaca fascicularis; conditions: in vivo, po, 6 h
Cytochrome P450 2C9 [8] = target: T4, Cytochrome P450 2C9 (Homo sapiens, UniProt P11712); test: Drug metabolism in human liver microsomes assessed as CYP2C9-mediated 2-(4-(2-((1H-Benzo[d]imidazol-2-yl)thio)ethyl)piperazin-1-yl)-N-(6-methyl-4-(methylsulfinyl)-2-(methylthio)pyridin-3-yl)acetamide formation; type: ADME
T4 sequence (P11712 whole entry): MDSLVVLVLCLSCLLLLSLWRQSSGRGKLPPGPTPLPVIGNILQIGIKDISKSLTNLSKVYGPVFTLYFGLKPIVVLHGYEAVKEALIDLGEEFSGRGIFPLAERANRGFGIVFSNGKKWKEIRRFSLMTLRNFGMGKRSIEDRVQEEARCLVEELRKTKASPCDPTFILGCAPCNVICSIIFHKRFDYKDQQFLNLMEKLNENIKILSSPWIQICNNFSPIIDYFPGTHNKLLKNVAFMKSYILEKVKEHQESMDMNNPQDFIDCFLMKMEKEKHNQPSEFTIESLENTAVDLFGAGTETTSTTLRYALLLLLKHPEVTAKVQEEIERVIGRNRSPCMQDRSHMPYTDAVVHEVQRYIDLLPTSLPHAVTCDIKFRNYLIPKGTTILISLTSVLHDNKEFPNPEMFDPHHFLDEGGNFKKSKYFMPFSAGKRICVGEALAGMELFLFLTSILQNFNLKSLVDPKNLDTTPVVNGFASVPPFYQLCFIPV

[9] = Drug metabolism in cynomolgus monkey plasma assessed as 2-(4-(2-((1H-Benzo[d]imidazol-2-yl)thio)ethyl)piperazin-1-yl)-N-(6-methyl-4-(methylsulfinyl)-2-(methylthio)pyridin-3-yl)acetamide formation at 10 mg/kg, administered into stomach using nasogastric catheter measured upto 360 mins by column-switching HPLC method; type: ADME, organism-based, Macaca fascicularis; conditions: in vivo, po, 6 h
Cytochrome P450 [10] = test: Drug metabolism in human liver microsomes assessed as Km for cytochrome p450-mediated 2-(4-(2-((5-Hydroxy-1H-benzo[d]imidazol-2-yl)thio)ethyl)piperazin-1-yl)-N-(6-methyl-2,4-bis(methylthio)pyridin-3-yl)acetamide formation; type: ADME
Cytochrome P450 [11] = test: Drug metabolism in human liver microsomes assessed as Vmax for cytochrome p450-mediated 2-(4-(2-((1H-Benzo[d]imidazol-2-yl)sulfinyl)ethyl)piperazin-1-yl)-N-(6-methyl-2,4-bis(methylthio)pyridin-3-yl)acetamide formation; type: ADME
[12] = Metabolic stability in male rat liver microsomes assessed as assessed as parent compound remaining; type: ADME, Microsome
Cytochrome P450 [13] = test: Drug metabolism in human liver microsomes assessed as Vmax for cytochrome p450-mediated 2-(4-(2-((1H-Benzo[d]imidazol-2-yl)thio)ethyl)piperazin-1-yl)-N-(6-methyl-4-(methylsulfinyl)-2-(methylthio)pyridin-3-yl)acetamide formation; type: ADME
Cytochrome P450 3A5 [14] = target: T2, Cytochrome P450 3A5; test: Drug metabolism in human liver microsomes assessed as CYP3A5-mediated 2-(4-(2-((1H-Benzo[d]imidazol-2-yl)thio)ethyl)piperazin-1-yl)-N-(6-methyl-4-(methylsulfinyl)-2-(methylthio)pyridin-3-yl)acetamide formation; type: ADME
[15] = Clearance in human liver microsomes assessed as 2-(4-(2-((1H-Benzo[d]imidazol-2-yl)thio)ethyl)piperazin-1-yl)-N-(6-methyl-4-(methylsulfinyl)-2-(methylthio)pyridin-3-yl)acetamide level per mg protein; type: ADME, Microsome
[16] = Clearance in human liver microsomes assessed as 2-(4-(2-((1H-Benzo[d]imidazol-2-yl)sulfinyl)ethyl)piperazin-1-yl)-N-(6-methyl-2,4-bis(methylthio)pyridin-3-yl)acetamide level per mg protein; type: ADME, Microsome
Cytochrome P450 [17] = test: Drug metabolism in human liver microsomes assessed as Vmax for cytochrome p450-mediated 2-(4-(2-((5-Hydroxy-1H-benzo[d]imidazol-2-yl)thio)ethyl)piperazin-1-yl)-N-(6-methyl-2,4-bis(methylthio)pyridin-3-yl)acetamide formation; type: ADME
Cytochrome P450 3A2 [18] = target: T1, Cytochrome P450 3A2; test: Drug metabolism in male rat liver microsomes assessed as CYP3A2-mediated 2-(4-(2-((1H-Benzo[d]imidazol-2-yl)thio)ethyl)piperazin-1-yl)-N-(6-methyl-4-(methylsulfinyl)-2-(methylthio)pyridin-3-yl)acetamide formation; type: ADME
[19] = Drug metabolism in cynomolgus monkey plasma assessed as 2-(4-(2-((1H-Benzo[d]imidazol-2-yl)thio)ethyl)piperazin-1-yl)-N-(6-methyl-2-(methyl-sulfinyl)-4-(methylthio)pyridin-3-yl)acetamide formation at 10 mg/kg, administered into stomach using nasogastric catheter measured upto 360 mins by column-switching HPLC method; type: ADME, organism-based, Macaca fascicularis; conditions: in vivo, po, 6 h
Cytochrome P450 [20] = test: Drug metabolism in human liver microsomes assessed as Vmax for cytochrome p450-mediated 2-(4-(2-((1H-Benzo[d]imidazol-2-yl)thio)ethyl)piperazin-1-yl)-N-(6-methyl-2-(methyl-sulfinyl)-4-(methylthio)pyridin-3-yl)acetamide formation; type: ADME
Cytochrome P450 3A4 [21] = target: T3, Cytochrome P450 3A4; test: Drug metabolism in human liver microsomes assessed as CYP3A4-mediated 2-(4-(2-((5-Hydroxy-1H-benzo[d]imidazol-2-yl)thio)ethyl)piperazin-1-yl)-N-(6-methyl-2,4-bis(methylthio)pyridin-3-yl)acetamide formation; type: ADME
[22] = Metabolic stability in cynomolgus monkey plasma assessed as parent compound remaining formation at 10 mg/kg, administered into stomach using nasogastric catheter measured upto 360 mins by column-switching HPLC method; type: ADME, organism-based, Macaca fascicularis; conditions: in vivo, po, 6 h
Cytochrome P450 3A4 [23] = target: T3, Cytochrome P450 3A4; test: Drug metabolism in human liver microsomes assessed as CYP3A4-mediated 2-(4-(2-((1H-Benzo[d]imidazol-2-yl)thio)ethyl)piperazin-1-yl)-N-(6-methyl-2-(methyl-sulfinyl)-4-(methylthio)pyridin-3-yl)acetamide formation; type: ADME
Cytochrome P450 2C9 [24] = target: T4, Cytochrome P450 2C9; test: Drug metabolism in human liver microsomes assessed as CYP2C9-mediated 2-(4-(2-((1H-Benzo[d]imidazol-2-yl)sulfinyl)ethyl)piperazin-1-yl)-N-(6-methyl-2,4-bis(methylthio)pyridin-3-yl)acetamide formation; type: ADME
Cytochrome P450 [25] = test: Drug metabolism in human liver microsomes assessed as Km for cytochrome p450-mediated 2-(4-(2-((1H-Benzo[d]imidazol-2-yl)thio)ethyl)piperazin-1-yl)-N-(6-methyl-2-(methyl-sulfinyl)-4-(methylthio)pyridin-3-yl)acetamide formation; type: ADME
Cytochrome P450 [26] = test: Drug metabolism in human liver microsomes assessed as Km for cytochrome p450-mediated 2-(4-(2-((1H-Benzo[d]imidazol-2-yl)thio)ethyl)piperazin-1-yl)-N-(6-methyl-4-(methylsulfinyl)-2-(methylthio)pyridin-3-yl)acetamide formation; type: ADME
Cytochrome P450 3A5 [27] = target: T2, Cytochrome P450 3A5; test: Drug metabolism in human liver microsomes assessed as CYP3A5-mediated 2-(4-(2-((1H-Benzo[d]imidazol-2-yl)thio)ethyl)piperazin-1-yl)-N-(6-methyl-2-(methyl-sulfinyl)-4-(methylthio)pyridin-3-yl)acetamide formation; type: ADME
[28] = Clearance in human liver microsomes assessed as 2-(4-(2-((1H-Benzo[d]imidazol-2-yl)thio)ethyl)piperazin-1-yl)-N-(6-methyl-2-(methyl-sulfinyl)-4-(methylthio)pyridin-3-yl)acetamide level per mg protein; type: ADME, Microsome
Cytochrome P450 2C9 [29] = target: T4, Cytochrome P450 2C9; test: Drug metabolism in human liver microsomes assessed as CYP2C9-mediated 2-(4-(2-((5-Hydroxy-1H-benzo[d]imidazol-2-yl)thio)ethyl)piperazin-1-yl)-N-(6-methyl-2,4-bis(methylthio)pyridin-3-yl)acetamide formation; type: ADME
Cytochrome P450 3A5 [30] = target: T2, Cytochrome P450 3A5; test: Drug metabolism in human liver microsomes assessed as CYP3A5-mediated 2-(4-(2-((1H-Benzo[d]imidazol-2-yl)sulfinyl)ethyl)piperazin-1-yl)-N-(6-methyl-2,4-bis(methylthio)pyridin-3-yl)acetamide formation; type: ADME
Cytochrome P450 2C11 = target: T5, Cytochrome P450 2C11 (Rattus norvegicus, UniProt P08683); test: Drug metabolism in […] rat liver microsomes assessed as CYP2C11-mediated 2-(4-(2-((1H-Benzo[d]imidazol-2-yl)thio)ethyl)piperazin-1-yl)-N-(6-methyl-4-(methylsulfinyl)-2-(methylthio)pyridin-3-yl)acetamide formation; type: ADME
T5 sequence (P08683 whole entry): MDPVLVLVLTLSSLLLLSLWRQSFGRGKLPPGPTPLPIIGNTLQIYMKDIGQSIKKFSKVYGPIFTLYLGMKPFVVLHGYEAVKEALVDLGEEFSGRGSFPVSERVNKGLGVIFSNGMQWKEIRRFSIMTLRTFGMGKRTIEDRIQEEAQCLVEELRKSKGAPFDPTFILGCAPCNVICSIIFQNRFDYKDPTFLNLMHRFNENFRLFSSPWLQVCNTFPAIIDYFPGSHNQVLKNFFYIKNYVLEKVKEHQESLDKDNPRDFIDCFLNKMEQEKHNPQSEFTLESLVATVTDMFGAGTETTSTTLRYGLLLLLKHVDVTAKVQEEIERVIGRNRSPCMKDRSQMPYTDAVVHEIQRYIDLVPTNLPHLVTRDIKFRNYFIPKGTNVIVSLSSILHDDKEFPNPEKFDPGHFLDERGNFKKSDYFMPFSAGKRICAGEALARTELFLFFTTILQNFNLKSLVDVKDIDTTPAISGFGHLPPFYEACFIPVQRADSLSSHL

[31] = Clearance in human liver microsomes assessed as 2-(4-(2-((5-Hydroxy-1H-benzo[d]imidazol-2-yl)thio)ethyl)piperazin-1-yl)-N-(6-methyl-2,4-bis(methylthio)pyridin-3-yl)acetamide level per mg protein; type: ADME, Microsome
[32] = Metabolic stability in female rat liver microsomes assessed as parent compound remaining; type: ADME, Microsome
Cytochrome P450 2D6 = Cytochrome P450 2D6 (Homo sapiens, UniProt P10635); test: Drug metabolism in human liver microsomes assessed as CYP2D6-mediated 2-(4-(2-((1H-Benzo[d]imidazol-2-yl)thio)ethyl)piperazin-1-yl)-N-(6-methyl-4-(methylsulfinyl)-2-(methylthio)pyridin-3-yl)acetamide formation; type: ADME
Sequence of Cytochrome P450 2D6 (P10635 whole entry): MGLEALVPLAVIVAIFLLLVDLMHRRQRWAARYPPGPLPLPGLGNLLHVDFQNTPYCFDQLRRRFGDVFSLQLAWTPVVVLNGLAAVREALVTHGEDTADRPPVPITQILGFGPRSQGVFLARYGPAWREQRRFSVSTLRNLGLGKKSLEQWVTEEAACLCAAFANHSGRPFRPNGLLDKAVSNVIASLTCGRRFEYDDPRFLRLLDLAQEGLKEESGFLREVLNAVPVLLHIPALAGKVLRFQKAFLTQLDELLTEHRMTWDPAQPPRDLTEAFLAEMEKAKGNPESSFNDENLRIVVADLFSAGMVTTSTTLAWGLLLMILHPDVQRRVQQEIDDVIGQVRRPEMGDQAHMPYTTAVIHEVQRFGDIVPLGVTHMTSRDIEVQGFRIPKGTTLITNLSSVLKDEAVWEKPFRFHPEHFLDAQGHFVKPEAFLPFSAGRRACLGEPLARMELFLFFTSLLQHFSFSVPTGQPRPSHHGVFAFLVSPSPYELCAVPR

Cytochrome P450 2C9 [33] = target: T4, Cytochrome P450 2C9; test: Drug metabolism in human liver microsomes assessed as CYP2C9-mediated 2-(4-(2-((1H-Benzo[d]imidazol-2-yl)thio)ethyl)piperazin-1-yl)-N-(6-methyl-2-(methyl-sulfinyl)-4-(methylthio)pyridin-3-yl)acetamide formation; type: ADME
[34] = Clearance in human liver microsomes assessed per mg protein for 5 mins in presence of NADPH by LC-MS/MS analysis; type: ADME, Microsome; conditions: read-out: CLH

Drug metabolism (Cytochrome P450 3A2 [1]): Metabolite_Detected | Drug metabolism (Cytochrome P450 3A5 [2]): Metabolite_Detected | Drug metabolism (Cytochrome P450 3A4 [3]): Metabolite_Detected | Drug metabolism [4]: Metabolite_Detected | Drug metabolism (Cytochrome P450 3A4 [5]): Metabolite_Detected | Km (Cytochrome P450 [6]): 2.6 µM | Drug metabolism [7]: Metabolite_Detected | Drug metabolism (Cytochrome P450 2C9 [8]): Metabolite_Notdetected | Drug metabolism [9]: Metabolite_Detected | Km (Cytochrome P450 [10]): 2 µM | Vmax (Cytochrome P450 [11]): 558 pmol/min/mg | Stabilty [12]: 5.2% | Vmax (Cytochrome P450 [13]): 1773 pmol/min/mg | Drug metabolism (Cytochrome P450 3A5 [14]): Metabolite_Detected | CLH [15]: 1353 µL/min | CLH [16]: 219 µL/min | Vmax (Cytochrome P450 [17]): 343 pmol/min/mg | Drug metabolism (Cytochrome P450 3A2 [18]): Metabolite_Detected | Drug metabolism [19]: Metabolite_Notdetected | Vmax (Cytochrome P450 [20]): 363 pmol/min/mg | Drug metabolism (Cytochrome P450 3A4 [21]): Metabolite_Detected | Stabilty [22]: Stable | Drug metabolism (Cytochrome P450 3A4 [23]): Metabolite_Detected | Drug metabolism (Cytochrome P450 2C9 [24]): Metabolite_Notdetected | Km (Cytochrome P450 [25]): 4.3 µM | Km (Cytochrome P450 [26]): 1.3 µM | Drug metabolism (Cytochrome P450 3A5 [27]): Metabolite_Detected | CLH [28]: 125 µL/min | Drug metabolism (Cytochrome P450 2C9 [29]): Metabolite_Notdetected | Drug metabolism (Cytochrome P450 3A5 [30]): Metabolite_Detected | Drug metabolism (Cytochrome P450 2C11): Metabolite_Notdetected | CLH [31]: 168 µL/min | Stabilty [32]: 76.1% | Drug metabolism (Cytochrome P450 2D6): Metabolite_Detected | Drug metabolism (Cytochrome P450 2C9 [33]): Metabolite_Notdetected | microsomal CLint [34]: 720 µL/min/mg
SMILES: CSc1cc(C)nc(SC)c1NC(=O)CN1CCN(CCSc2nc3ccccc3[nH]2)CC1.Cl
